Data taken from patent US12171755B2, “PAPD5 inhibitors and methods of use thereof” (Children's Medical Center Corporation, priority 2017, dated 2024).

Biological target: T1, PAPD5 (Homo sapiens, UniProt Q8NDF8)
T1 construct: made in house
Test: High-throughput luminescence (KinaseGlo) RNA polyadenylation assay, ATP utilization by recombinant PAPD5
Type: biochemical
Conditions: Table 4 (entries of Table 5), ratio of luminescence with inhibitor to DMSO; for Fold-change determined at compound concentration 33 μM: 33 μM compound; for Fold-change determined at compound concentration 100 μM: 100 μM compound, higher = higher inhibition
Procedure: Optimal conditions for an in vitro RNA polyadenylation assay using recombinant PAPD5, ATP and an oligonucleotide substrate were identified. The HTS assay involved ATP utilization by PAPD5, which reads out as a decreased luminescence signal produced by luciferase (KinaseGlo, Promega, Madison, WI).
100 nl of compound dissolved in DMSO was transferred to each well of the assay plate via pin transfer. For negative control wells, DMSO alone was added. Plates were gently vortexed for 5 seconds, then incubated for 2 hours at room temperature.
After 2 hours, 5 ul of luciferase (Promega KinaseGlo, Madison, WI) was added using a MultiDrop Combi (Thermo Fisher Scientific, Waltham, MA). The mixture was gently vortexed for 5 seconds and incubated for 10 minutes at room temperature. Plates were spun for 1 minute prior to luminescence measurements. Luminescent measurements were quantitated using a PerkinElmer EnVision™ plate reader.
˜100,000 compounds from various libraries at the ICCB-Longwood were screened in this manner in duplicate.
The fold change was the ratio of luminescence from a sample with inhibitor compared to that with DMSO. Thus, a higher number indicates higher inhibition.

T1 sequence (Q8NDF8 68-698 isoform Q8NDF8-5): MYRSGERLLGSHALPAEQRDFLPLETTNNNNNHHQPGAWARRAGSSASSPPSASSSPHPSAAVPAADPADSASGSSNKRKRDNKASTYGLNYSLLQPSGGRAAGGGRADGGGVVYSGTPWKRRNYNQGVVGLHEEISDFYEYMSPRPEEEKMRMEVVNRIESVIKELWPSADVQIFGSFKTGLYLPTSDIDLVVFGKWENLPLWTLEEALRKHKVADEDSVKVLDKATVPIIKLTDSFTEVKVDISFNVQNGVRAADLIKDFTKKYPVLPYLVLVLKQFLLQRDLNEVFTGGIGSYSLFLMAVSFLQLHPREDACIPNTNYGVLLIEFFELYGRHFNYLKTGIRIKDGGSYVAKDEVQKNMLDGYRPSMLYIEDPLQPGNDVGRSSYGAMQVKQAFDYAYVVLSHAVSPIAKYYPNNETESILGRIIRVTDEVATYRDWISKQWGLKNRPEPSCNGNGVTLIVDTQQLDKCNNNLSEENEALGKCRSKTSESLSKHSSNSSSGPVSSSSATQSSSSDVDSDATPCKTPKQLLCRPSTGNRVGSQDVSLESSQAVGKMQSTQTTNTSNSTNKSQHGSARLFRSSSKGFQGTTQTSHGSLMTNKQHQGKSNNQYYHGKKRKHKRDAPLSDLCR

In the case of CC(C)Cn1cc(NC(=O)NCc2ccc(Cl)cc2)c2ccccc2c1=O [Entry 58, 1-[(4-chlorophenyl)methyl]-3-[2-(2-methylpropyl)-1-oxoisoquinolin-4-yl]urea], the “Fold-change determined at compound concentration 33 μM” value is reported as 1.076 and the “Fold-change determined at compound concentration 100 μM” value is reported as 1.364.

For CCOc1ccccc1CNC(=O)Nc1cn(CC(C)C)c(=O)c2ccccc12 [Entry 59, 1-[(2-ethoxyphenyl)methyl]-3-[2-(2-methylpropyl)-1-oxoisoquinolin-4-yl]urea], the “Fold-change determined at compound concentration 33 μM” value was 1.113 and the “Fold-change determined at compound concentration 100 μM” value was 1.69.

In the case of COc1cccc(CNC(=O)Nc2cn(CC(C)C)c(=O)c3ccccc23)c1 [Entry 60, 1-[(3-methoxyphenyl)methyl]-3-[2-(2-methylpropyl)-1-oxoisoquinolin-4-yl]urea], the “Fold-change determined at compound concentration 33 μM” value is reported as 1.088 and the “Fold-change determined at compound concentration 100 μM” value is reported as 1.621.

In the case of COc1ccc(CNC(=O)Nc2cn(CC(C)C)c(=O)c3ccccc23)c(OC)c1 [Entry 60a, 1-[(2,4-dimethoxyphenyl)methyl]-3-[2-(2-methylpropyl)-1-oxoisoquinolin-4-yl]urea], the “Fold-change determined at compound concentration 33 μM” value is reported as 1.164 and the “Fold-change determined at compound concentration 100 μM” value is reported as 1.507.

CCc1cccc(NC(=O)Nc2cn(C)c(=O)c3ccccc23)c1 [Entry 61, 1-(3-ethylphenyl)-3-(2-methyl-1-oxoisoquinolin-4-yl)urea] was tested, and the “Fold-change determined at compound concentration 33 μM” value was 1.07 and the “Fold-change determined at compound concentration 100 μM” value was 1.235.

In the case of NC1CCN(c2nc3c(cc2F)c(=O)c(C(=O)O)cn3-c2ccc(F)cc2F)C1 (stereo not shown) [Entry 62, 7-(3-aminopyrrolidin-1-yl)-1-(2,4-difluorophenyl)-6-fluoro-4-oxo-1,4-dihydro-1,8-naphthyridine-3-carboxylic acid], the “Fold-change determined at compound concentration 33 μM” value is reported as 1.298 and the “Fold-change determined at compound concentration 100 μM” value is reported as 1.41.

For COc1cccc(CNC2=Nc3ccccc3NC23CCCCC3)c1 [Entry 63, N-[(3-methoxyphenyl)methyl]spiro[4H-quinoxaline-3,1′-cyclohexane]-2-amine], the “Fold-change determined at compound concentration 33 μM” value was 1.113 and the “Fold-change determined at compound concentration 100 μM” value was 1.417.

O=C(CCCn1c(=O)c2cccn2c2ccc(Br)cc21)N1CCCC1 [Entry 65, 7-bromo-5-(4-oxo-4-pyrrolidin-1-ylbutyl)pyrrolo[1,2-a]quinoxalin-4-one] was tested, and the “Fold-change determined at compound concentration 33 μM” value was 1.23 and the “Fold-change determined at compound concentration 100 μM” value was 1.394.

For CCCCN(CC)C(=O)CCCn1c(=O)c2cccn2c2ccccc21 [Entry 66, N-butyl-N-ethyl-4-(4-oxopyrrolo[1,2-a]quinoxalin-5-yl)butanamide], the “Fold-change determined at compound concentration 33 μM” value was 1.083 and the “Fold-change determined at compound concentration 100 μM” value was 1.229.

With COc1ccc(NC(=O)CCn2c(=O)c3cccn3c3ccccc32)c(OC)c1 [Entry 67, N-(2,4-dimethoxyphenyl)-3-(4-oxopyrrolo[1,2-a]quinoxalin-5-yl)propanamide] the “Fold-change determined at compound concentration 33 μM” value was 1.122 and the “Fold-change determined at compound concentration 100 μM” value was 1.238.

With CCN(CC)CCNC(=O)c1ccc(Cn2c(=O)c3cccn3c3cccnc32)cc1 [Entry 69, N-(2-(diethylamino)ethyl)-4-((6-oxopyrido[2,3-e]pyrrolo[1,2-a]pyrazin-5(6H)-yl)methyl)benzamide] the “Fold-change determined at compound concentration 33 μM” value was 1.116 and the “Fold-change determined at compound concentration 100 μM” value was 1.223.

With CN(C)CCNC(=O)c1ccc(Cn2c(=O)c3cccn3c3cccnc32)cc1 [Entry 70, N-[2-(dimethylamino)ethyl]-4-[(6-oxopyrido[2,3-e]pyrrolo[1,2-a]pyrazin-5(6H)-yl)methyl]benzamide] the “Fold-change determined at compound concentration 33 μM” value was 1.103 and the “Fold-change determined at compound concentration 100 μM” value was 1.206.

CCCCn1c(=O)c2sccc2n2c(=S)[nH]nc12 [Entry 71, 4-butyl-1-thioxo-2,4-dihydrothieno[2,3-e][1,2,4]triazolo[4,3-a]pyrimidin-5(1H)-one] was tested, and the “Fold-change determined at compound concentration 33 μM” value was 1.173 and the “Fold-change determined at compound concentration 100 μM” value was 1.531.

With CCCn1c(=O)c2cc(F)ccc2n2c(=S)[nH]nc12 [Entry 72, 7-fluoro-4-propyl-1-thioxo-2,4-dihydro[1,2,4]triazolo[4,3-a]quinazolin-5(1H)-one] the “Fold-change determined at compound concentration 33 μM” value was 1.099 and the “Fold-change determined at compound concentration 100 μM” value was 1.256.

In the case of CC(C)Cn1c(=O)c2ccccc2n2c(=S)[nH]nc12 [Entry 73, 4-isobutyl-1-thioxo-2,4-dihydro[1,2,4]triazolo[4,3-a]quinazolin-5(1H)-one], the “Fold-change determined at compound concentration 33 μM” value is reported as 1.093 and the “Fold-change determined at compound concentration 100 μM” value is reported as 1.278.

CC(C)CCn1c(=O)c2ccccc2n2c(=S)[nH]nc12 [Entry 74, 1-mercapto-4-(3-methylbutyl)[1,2,4]triazolo[4,3-a]quinazolin-5(4H)-one] was tested, and the “Fold-change determined at compound concentration 33 μM” value was 1.372 and the “Fold-change determined at compound concentration 100 μM” value was 1.87.

In the case of O=c1c2sccc2n2c(=S)[nH]nc2n1Cc1ccccc1 [Entry 75, 4-benzyl-1-thioxo-2,4-dihydrothieno[2,3-e][1,2,4]triazolo[4,3-a]pyrimidin-5(1H)-one], the “Fold-change determined at compound concentration 33 μM” value is reported as 1.11 and the “Fold-change determined at compound concentration 100 μM” value is reported as 1.324.

For CCc1ccc(Cn2c(=O)c3sccc3n3c(=S)[nH]nc23)cc1 [Entry 76, 4-(4-ethylbenzyl)-1-thioxo-2,4-dihydrothieno[2,3-e][1,2,4]triazolo[4,3-a]pyrimidin-5(1H)-one], the “Fold-change determined at compound concentration 33 μM” value was 1.7195 and the “Fold-change determined at compound concentration 100 μM” value was 1.423.

In the case of CCn1c(SCC(=O)O)nc2c(=O)n(C)c(=O)n(C)c21 [Entry 77, 2-(9-ethyl-1,3-dimethyl-2,6-dioxopurin-8-yl)sulfanylacetic acid], the “Fold-change determined at compound concentration 33 μM” value is reported as 1.142 and the “Fold-change determined at compound concentration 100 μM” value is reported as 1.419.

For Cn1c(=O)c2nc(SCCC(=O)O)n(Cc3ccc(F)cc3)c2n(C)c1=O [Entry 78, 3-{[9-(4-fluorobenzyl)-1,3-dimethyl-2,6-dioxo-2,3,6,9-tetrahydro-1H-purin-8-yl]sulfanyl}propanoic acid], the “Fold-change determined at compound concentration 33 μM” value was 1.05 and the “Fold-change determined at compound concentration 100 μM” value was 1.26.

For Cn1c(=O)c2nc(SCC(=O)O)n(CCc3ccccc3)c2n(C)c1=O [Entry 79, 2-[1,3-dimethyl-2,6-dioxo-9-(2-phenylethyl)purin-8-yl]sulfanylacetic acid], the “Fold-change determined at compound concentration 33 μM” value was 1.164 and the “Fold-change determined at compound concentration 100 μM” value was 1.447.

With Cn1c(=O)c2nc(SCC(=O)O)n(Cc3ccccc3)c2n(C)c1=O [Entry 80, 2-(9-benzyl-1,3-dimethyl-2,6-dioxopurin-8-yl)sulfanylacetic acid] the “Fold-change determined at compound concentration 33 μM” value was 1.164 and the “Fold-change determined at compound concentration 100 μM” value was 1.55.

For Cn1c(=O)c2c(nc(Sc3nnc(NC(=O)c4ccccc4Br)s3)n2C)n(C)c1=O [Entry 81], the “Fold-change determined at compound concentration 33 μM” value was 1.107 and the “Fold-change determined at compound concentration 100 μM” value was 1.288.

For Cn1c(=O)c2nc(SCCC(=O)O)n(Cc3ccccc3)c2n(C)c1=O [Entry 82, 3-(9-benzyl-1,3-dimethyl-2,6-dioxopurin-8-yl)sulfanylpropanoic acid], the “Fold-change determined at compound concentration 33 μM” value was 1.122 and the “Fold-change determined at compound concentration 100 μM” value was 1.306.

O=C(O)c1ccccc1C(=O)Nc1ccc(Br)c2cccnc12 [Entry 83, 2-[(5-bromoquinolin-8-yl)carbamoyl]benzoic acid] was tested, and the “Fold-change determined at compound concentration 33 μM” value was 1.041 and the “Fold-change determined at compound concentration 100 μM” value was 1.203.

In the case of Cc1ccc(-c2onc3ccc(-c4cc(C(=O)O)c5ccccc5n4)cc23)cc1 [Entry 84, 2-[3-(4-methylphenyl)-2,1-benzoxazol-5-yl]quinoline-4-carboxylic acid], the “Fold-change determined at compound concentration 33 μM” value is reported as 1.12 and the “Fold-change determined at compound concentration 100 μM” value is reported as 1.568.

With Cc1cc(C)c2nc(C)cc(C(=O)O)c2c1 [Entry 85, 2,6,8-trimethylquinoline-4-carboxylic acid] the “Fold-change determined at compound concentration 33 μM” value was 1.061 and the “Fold-change determined at compound concentration 100 μM” value was 1.252.

Cc1ccc2cccc(NC(=O)c3cccnc3)c2n1 [Entry 86, N-(2-methylquinolin-8-yl)nicotinamide] was tested, and the “Fold-change determined at compound concentration 33 μM” value was 1.085 and the “Fold-change determined at compound concentration 100 μM” value was 1.233.

In the case of COc1ccc(NC(=O)c2ccc3c(SCC(=O)O)c4c(nc3c2)CCC4)c(OC)c1 [Entry 87, 2-[[6-[(2,4-dimethoxyphenyl)carbamoyl]-2,3-dihydro-1H-cyclopenta[b]quinolin-9-yl]sulfanyl]acetic acid], the “Fold-change determined at compound concentration 33 μM” value is reported as 1.097 and the “Fold-change determined at compound concentration 100 μM” value is reported as 1.253.

With COc1ccc(NC(=O)c2ccc3c(SCC(=O)O)c4c(nc3c2)CCCC4)c(OC)c1 [Entry 88, [(6-{[(2,4-dimethoxyphenyl)amino]carbonyl}-1,2,3,4-tetrahydroacridin-9-yl)thio]acetic acid] the “Fold-change determined at compound concentration 33 μM” value was 1.082 and the “Fold-change determined at compound concentration 100 μM” value was 1.276.

COCCNC(=O)CSc1c2c(nc3cc(Cl)ccc13)CCCC2 [Entry 89, 2-[(6-chloro-1,2,3,4-tetrahydroacridin-9-yl)sulfanyl]-N-(2-methoxyethyl)acetamide] was tested, and the “Fold-change determined at compound concentration 33 μM” value was 1.098 and the “Fold-change determined at compound concentration 100 μM” value was 1.211.

With CCCNC(=O)CSc1c2c(nc3ccc(Cl)cc13)CCCC2 [Entry 90, 2-[(7-chloro-1,2,3,4-tetrahydroacridin-9-yl)sulfanyl]-N-propylacetamide] the “Fold-change determined at compound concentration 33 μM” value was 1.105 and the “Fold-change determined at compound concentration 100 μM” value was 1.253.
